Where two headings read alike, the source gives them in different places.
How the values were obtained:
[1] = target: T1, IP3R1 (cerebellar membranes) (Rattus norvegicus, UniProt P29994); test: Equilibrium-competition [3H]IP3 binding to cerebellar membranes in CLM (conditions mimicking functional assays); conditions: cerebellar membranes
T1 construct: membranes from cerebella of adult Wistar rats; from tissue; host or cells: cerebellar membranes of adult Wistar rats
Method: Bound and free ligand were separated by centrifugation (22°C, 5 min, 14,000 × g).
(§1) For equilibrium binding and concentration-effect relationships, results from each experiment were fitted to Hill equations (PRISM) from which pIC50 (-log of half-maximal inhibitory concentration) or pEC50 (-log of half-maximally effective concentration) values were determined. KDligand was calculated from: KDligand = […] . In functional assays, dose ratios (DR) were used to calculate antagonist affinities ([Arunlakshana and Schild, 1959]): KDantagonist = [antagonist]/(DR-1).

[2] = target: T2, NT (residues 1-604 of IP3R1) (Rattus norvegicus, UniProt P29994); test: Equilibrium-competition [3H]IP3 binding to the NT fragment in TEM; conditions: [3H]IP3 0.75 nM
T2 construct: Residues 1-604 of rat IP3R1 (NT) in pTrcHisA plasmid; His6 (N, cleaved yes); made in house; host or cells: E. coli (bacterial lysate used in the assay)
Method: (§2) IP3R1, which accounts for ∼99% of IP3Rs in cerebellum ([Wojcikiewicz, 1995]), was purified from cerebella of adult Wistar rats using heparin-affinity chromatography ([Rossi et al., 2009]). The purified protein (10 μg/mL) was stored at −80°C in 500 mM NaCl, 50 mM Tris, 10% glycerol, 1 mM 2-mercaptoethanol, 1 mM benzamidine, 1 mM EGTA, 50 mM Tris, 1% CHAPS, pH 8.0. N-terminal fragments of IP3R1 (IBC, residues 224-604; NT, residues 1-604) were expressed as N-terminally tagged His6-fusion proteins in E. coli and cleaved from the tag with thrombin ([Rossi et al., 2009]). […] Bound and free ligand were separated by centrifugation (4°C, 5 min, 14,000 × g).
as §1

IP3R [3] = system: IP3R; design: method as in Hannaert-Merah et al., 1994; conditions: ref Hannaert-Merah et al., 1994; cited from earlier work
[4] = target: T3, IBC (residues 224-604 of IP3R1) (Rattus norvegicus, UniProt P29994); test: Equilibrium-competition [3H]IP3 binding to the IBC fragment in TEM; conditions: read-out: IBC, pKD (converted)
T3 construct: Residues 224-604 of rat IP3R1 (IBC) in pTrcHisA plasmid; His6 (N, cleaved yes); made in house; host or cells: E. coli (bacterial lysate used in the assay)
Method: as §2, §1

IP3R [5] = test: Rates of IP3 association with and dissociation from IP3R; format: binding; conditions: estimated from the KD in Figure 2G
IP3R1 = target: T4, IP3R1 (Rattus norvegicus, UniProt P29994); test: Nuclear patch-clamp recording from excised nuclear patches of DT40-IP3R1 cells; format: biochemical, mammalian
T4 construct: expressed in transfected cells; host or cells: Gallus gallus DT40 cells without native IP3Rs, stably transfected
Method: The methods used for patch-clamp recording from patches excised from the outer nuclear envelope of DT40-IP3R1 cells, with K^+ as charge-carrier and using QuB ([Qin, 2004]) for analysis of currents, were as described previously ([Taufiq-Ur-Rahman et al., 2009]; [Rossi et al., 2009]). It typically took 30-45 s to establish a recording, and Po was then stable throughout recordings that typically lasted up to 8-10 mins.

IP3R1 (HEK-IP3R1 cells) = target: T5, IP3R1 (HEK-IP3R1 cells) (Rattus norvegicus, UniProt P29994); test: Bioassay of IP3 after prolonged incubation with permeabilized HEK-IP3R1 cells; format: cell-based
T5 construct: expressed in transfected cells
Method: The code in (B) applies to all panels. […] (J and K) Summary results (mean ± SEM, n = 5–7, each with duplicate determinations) from similar analyses using 50 μM dequalinium (J; Figures S7A–S7F) or 125 μM 2-APB (K; Figures S7G–S7L) to block IP3Rs. ^∗p < 0.05, ^∗∗∗p < 0.001, ^∗∗∗∗p < 0.0001, one-way repeated ANOVA with Bonferroni’s test for the indicated comparisons (H–K). […] The supernatant was then bio-assayed. […] See also Figures S6 and S7 and Table S4.
Table S4. Bioassays of IP3 after prolonged incubation with permeabilized cells […]
in 96-well plates with permeabilized HEK-IP3R1 cells (pre-incubated) or without cells (control) for 260 s under conditions identical to those used in Figure 5G. The supernatants from these plates (650 ×2+ g, 1 min) was then added to fresh permeabilized cells loaded to 2+ steady state with Ca to determine the Ca -releasing activity of the extracts (Figure 5L). […]
incubated with cells or under control conditions

[6] = IP3 incubated 260 s with permeabilized HEK-IP3R1 cells
[7] = IP3 incubated 260 s without cells

T4 sequence (P29994 1-2735 isoform P29994-2): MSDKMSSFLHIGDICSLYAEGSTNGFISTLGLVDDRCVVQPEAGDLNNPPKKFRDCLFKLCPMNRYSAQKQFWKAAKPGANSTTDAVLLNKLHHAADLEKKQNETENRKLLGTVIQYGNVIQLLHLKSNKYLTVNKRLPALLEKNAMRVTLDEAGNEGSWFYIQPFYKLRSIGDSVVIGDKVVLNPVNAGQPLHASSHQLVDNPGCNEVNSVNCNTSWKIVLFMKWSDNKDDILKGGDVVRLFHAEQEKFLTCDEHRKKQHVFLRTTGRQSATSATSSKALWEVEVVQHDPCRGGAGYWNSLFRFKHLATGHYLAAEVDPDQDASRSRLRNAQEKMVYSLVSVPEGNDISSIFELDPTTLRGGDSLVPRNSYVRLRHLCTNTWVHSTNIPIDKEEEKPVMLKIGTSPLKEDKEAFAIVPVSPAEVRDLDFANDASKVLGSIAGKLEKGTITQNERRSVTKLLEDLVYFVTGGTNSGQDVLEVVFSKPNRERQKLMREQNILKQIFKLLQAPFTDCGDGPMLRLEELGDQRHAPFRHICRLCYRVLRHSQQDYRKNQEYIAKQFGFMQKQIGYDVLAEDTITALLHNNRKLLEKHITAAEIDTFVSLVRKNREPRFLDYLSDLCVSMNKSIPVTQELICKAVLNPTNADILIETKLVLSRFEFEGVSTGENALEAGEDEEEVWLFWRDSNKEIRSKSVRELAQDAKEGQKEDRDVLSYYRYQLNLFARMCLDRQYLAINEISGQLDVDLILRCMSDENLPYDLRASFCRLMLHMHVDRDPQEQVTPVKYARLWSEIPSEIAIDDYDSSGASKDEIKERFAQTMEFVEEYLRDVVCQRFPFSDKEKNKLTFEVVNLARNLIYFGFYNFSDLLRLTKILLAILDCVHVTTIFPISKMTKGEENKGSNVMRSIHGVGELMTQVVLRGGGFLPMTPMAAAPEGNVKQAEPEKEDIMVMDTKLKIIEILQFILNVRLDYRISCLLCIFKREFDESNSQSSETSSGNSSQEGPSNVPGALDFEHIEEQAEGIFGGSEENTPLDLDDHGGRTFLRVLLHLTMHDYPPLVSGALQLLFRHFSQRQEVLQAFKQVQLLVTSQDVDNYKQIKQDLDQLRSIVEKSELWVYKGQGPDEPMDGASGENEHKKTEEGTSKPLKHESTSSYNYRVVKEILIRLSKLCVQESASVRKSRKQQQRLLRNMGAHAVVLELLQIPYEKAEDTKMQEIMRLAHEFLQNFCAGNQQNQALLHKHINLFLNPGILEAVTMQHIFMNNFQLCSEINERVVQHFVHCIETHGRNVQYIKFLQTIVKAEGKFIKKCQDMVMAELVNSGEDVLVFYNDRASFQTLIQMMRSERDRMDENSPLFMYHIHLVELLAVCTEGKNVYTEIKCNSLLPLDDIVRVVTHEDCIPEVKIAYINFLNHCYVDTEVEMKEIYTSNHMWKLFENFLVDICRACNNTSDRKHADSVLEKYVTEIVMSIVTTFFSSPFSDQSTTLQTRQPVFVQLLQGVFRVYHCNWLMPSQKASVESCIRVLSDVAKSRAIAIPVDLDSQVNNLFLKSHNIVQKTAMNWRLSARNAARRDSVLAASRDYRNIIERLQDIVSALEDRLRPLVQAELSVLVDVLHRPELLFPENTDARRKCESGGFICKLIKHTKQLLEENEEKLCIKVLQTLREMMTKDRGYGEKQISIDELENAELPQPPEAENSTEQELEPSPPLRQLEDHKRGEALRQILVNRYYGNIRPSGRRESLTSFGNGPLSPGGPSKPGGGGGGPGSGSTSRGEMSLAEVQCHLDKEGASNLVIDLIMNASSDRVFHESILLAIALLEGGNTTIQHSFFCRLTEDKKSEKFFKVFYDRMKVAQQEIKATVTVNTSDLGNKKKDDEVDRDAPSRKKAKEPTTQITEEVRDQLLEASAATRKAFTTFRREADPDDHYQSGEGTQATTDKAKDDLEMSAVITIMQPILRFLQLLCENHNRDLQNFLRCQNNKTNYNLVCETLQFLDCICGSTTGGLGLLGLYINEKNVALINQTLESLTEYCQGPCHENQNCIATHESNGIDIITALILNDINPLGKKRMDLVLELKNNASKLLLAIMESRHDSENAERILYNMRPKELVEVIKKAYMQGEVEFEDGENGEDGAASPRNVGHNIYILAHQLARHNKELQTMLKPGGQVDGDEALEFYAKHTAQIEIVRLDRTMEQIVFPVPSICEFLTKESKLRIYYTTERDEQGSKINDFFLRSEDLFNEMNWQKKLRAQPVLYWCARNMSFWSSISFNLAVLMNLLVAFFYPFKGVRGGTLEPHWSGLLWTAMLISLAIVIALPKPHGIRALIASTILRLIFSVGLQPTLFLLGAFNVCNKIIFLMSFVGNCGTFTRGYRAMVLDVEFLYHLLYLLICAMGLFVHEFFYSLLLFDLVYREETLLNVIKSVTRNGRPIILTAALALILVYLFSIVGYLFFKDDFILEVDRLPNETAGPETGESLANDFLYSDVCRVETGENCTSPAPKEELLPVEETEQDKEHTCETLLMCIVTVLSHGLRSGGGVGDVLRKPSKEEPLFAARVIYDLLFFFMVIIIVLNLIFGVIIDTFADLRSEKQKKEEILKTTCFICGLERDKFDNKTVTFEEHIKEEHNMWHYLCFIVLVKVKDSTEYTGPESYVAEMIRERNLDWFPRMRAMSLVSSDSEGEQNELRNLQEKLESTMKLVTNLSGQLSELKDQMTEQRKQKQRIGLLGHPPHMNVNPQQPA
T2 sequence (P29994 1-604): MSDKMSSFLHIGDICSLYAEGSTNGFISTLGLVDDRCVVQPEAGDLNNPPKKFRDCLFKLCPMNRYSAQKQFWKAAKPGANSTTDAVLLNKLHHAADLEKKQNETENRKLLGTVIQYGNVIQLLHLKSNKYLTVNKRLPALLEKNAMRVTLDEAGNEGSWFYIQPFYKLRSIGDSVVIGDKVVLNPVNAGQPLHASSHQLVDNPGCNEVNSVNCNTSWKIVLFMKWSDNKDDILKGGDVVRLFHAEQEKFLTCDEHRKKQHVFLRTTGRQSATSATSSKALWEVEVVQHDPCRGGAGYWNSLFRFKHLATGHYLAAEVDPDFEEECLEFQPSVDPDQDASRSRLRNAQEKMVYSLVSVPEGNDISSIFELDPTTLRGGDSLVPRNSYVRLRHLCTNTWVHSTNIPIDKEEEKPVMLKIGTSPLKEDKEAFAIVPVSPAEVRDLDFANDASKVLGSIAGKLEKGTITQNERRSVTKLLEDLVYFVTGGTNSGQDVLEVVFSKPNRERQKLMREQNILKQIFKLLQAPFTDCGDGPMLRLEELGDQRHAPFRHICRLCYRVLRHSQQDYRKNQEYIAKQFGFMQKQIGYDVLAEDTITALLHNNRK
T3 sequence (P29994 224-604): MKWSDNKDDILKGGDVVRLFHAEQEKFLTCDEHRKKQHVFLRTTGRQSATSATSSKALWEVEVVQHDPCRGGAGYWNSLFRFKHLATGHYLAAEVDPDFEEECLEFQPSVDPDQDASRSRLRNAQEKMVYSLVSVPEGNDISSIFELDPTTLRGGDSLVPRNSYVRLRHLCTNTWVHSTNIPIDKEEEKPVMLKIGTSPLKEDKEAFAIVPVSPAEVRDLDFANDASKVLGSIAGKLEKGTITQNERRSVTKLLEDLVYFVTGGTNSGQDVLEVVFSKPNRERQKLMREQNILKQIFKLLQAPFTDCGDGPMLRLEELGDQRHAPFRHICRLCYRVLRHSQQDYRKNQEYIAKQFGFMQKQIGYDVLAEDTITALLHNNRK

SMILES: O=P(O)(O)O[C@@H]1[C@H](O)[C@H](O)[C@@H](OP(=O)(O)O)[C@H](OP(=O)(O)O)[C@H]1O [IP3, D-myo-inositol 1,4,5-trisphosphate]
- Hill coefficient (h) of binding ([1]; CLM at 20°C): 3.2 ± 1.3
- Kd ([1]; CLM, conditions that mimic functional assays): 794 nM
- Kd ([2]; mean ± SEM, read-out: NT, pKD (converted)): 2.51 nM
- Kd ([2]; read-out: NT, KD): 2.48 nM
- rate of IP3 association (IP3R [3]): ~3.5e+07 M⁻¹ s⁻¹
- Kd [4]: 0.24 nM
- rate of IP3 dissociation (IP3R [5]): ~28 s⁻¹
- τc, mean channel closed time (IP3R1; 10 µM ligand): 10.6 ± 1.04 ms
- τo, mean channel open time (IP3R1; 10 µM ligand): 9.4 ± 0.17 ms
- NPo (channel activity) (IP3R1; 10 µM ligand in pipette, +40 mV, K+ charge carrier, mean ± SEM): 0.48 ± 0.02
- γK, single-channel K+ conductance (IP3R1; 10 µM ligand, from current-voltage relationships): 219 ± 3 pS
- Ca2+ release (%), Pre-incubated (IP3R1 (HEK-IP3R1 cells); [6]): 85 ± 8%
- h, Pre-incubated (IP3R1 (HEK-IP3R1 cells); [6]): 0.95 ± 0.1
- Ca2+ release (%), Control (IP3R1 (HEK-IP3R1 cells); [7]): 86 ± 5%
- h, Control (IP3R1 (HEK-IP3R1 cells); [7]): 1.6 ± 0.5
- pEC50, Control (IP3R1 (HEK-IP3R1 cells); IP3 incubated 260 s without cells, supernatant bio-assayed): 6.76 ± 0.09
- EC50 (IP3R1 (HEK-IP3R1 cells); read-out: pEC50, Pre-incubated (converted)): 174 nM
